From BigSolDB 2.1

Clc1ncnc2nc[nH]c12
solubility (mole fraction)
Conditions | 283.15 K | 288.15 K | 293.15 K | 298.15 K | 303.15 K | 308.15 K | 313.15 K | 318.15 K | 323.15 K | 328.15 K
in DMAc | 0.0175 | 0.0217 | 0.0267 | 0.0334 | 0.0411 | 0.0504 | 0.061 | 0.074 | 0.0893 | 0.107
in DMF | 0.0555 | 0.0645 | 0.075 | 0.0871 | 0.0995 | 0.114 | 0.129 | 0.147 | 0.165 | 0.186
in ethanol | 0.0087 | 0.0103 | 0.0122 | 0.0144 | 0.0168 | 0.0195 | 0.0226 | 0.026 | 0.0296 | 0.0338
in methanol | 0.0112 | 0.0132 | 0.0153 | 0.0178 | 0.0204 | 0.0234 | 0.0268 | 0.0304 | 0.0345 | 0.0389
in water | 0.00051 | 0.000555 | 0.000601 | 0.000658 | 0.000709 | 0.000761 | 0.000815 | 0.000873 | 0.000935 | 0.000994
